Patent EP1157985A1 (G.D. SEARLE & CO., priority 1996, dated 1997)
Where a name gives a salt, the structure may show the parent alone. Read-outs that look alike come from different tables or passages of the source.

Legend:
[1] = target: T1, Human vitronectin receptor (αvβ3) (Homo sapiens, UniProt P05106+P06756); experiment: Vitronectin adhesion assay (solid phase receptor assay, competition with biotinylated vitronectin); type: binding
T1 construct: Human vitronectin receptor (αvβ3) was purified from human placenta; from tissue; host or cells: human placenta
Procedure: VITRONECTIN ADHESION ASSAY
Human vitronectin receptor (αvβ3) was purified from human placenta as previously described [Pytela et al., Methods in Enzymology, 144:475-489 (1987)]. Human vitronectin was purified from fresh frozen plasma as previously described [Yatohgo et al., Cell Structure and Function, 13:281-292 (1988)]. Biotinylated human vitronectin was prepared by coupling NHS-biotin from Pierce Chemical Company (Rockford, IL) to purified vitronectin as previously described [Charo et al., J. Biol. Chem., 266(3):1415-1421 (1991)]. Assay buffer, OPD substrate tablets, and RIA grade BSA were obtained from Sigma (St. Louis, MO). Anti-biotin antibody was obtained from Calbiochem (La Jolla, CA). Linbro microtiter plates were obtained from Flow Labs (McLean, VA). ADP reagent was obtained from Sigma (St. Louis, MO).
This assay was essentially the same as previously reported [Niiya et al., Blood, 70:475-483 (1987)]. The purified human vitronectin receptor (αvβ3) was diluted from stock solutions to 1.0 µg/mL in Tris-buffered saline containing 1.0 mM Ca^++, Mg^++, and Mn^++, pH 7.4 (TBS^+++). The diluted receptor was immediately transferred to Linbro microtiter plates at 100 µL/well (100 ng receptor/well). The plates were sealed and incubated overnight at 4°C to allow the receptor to bind to the wells. All remaining steps were at room temperature. The assay plates were emptied and 200 µL of 1% RIA grade BSA in TBS^+++ (TBS^+++/BSA) were added to block exposed plastic surfaces. Following a 2 hour incubation, the assay plates were washed with TBS^+++ using a 96 well plate washer. Logarithmic serial dilution of the test compound and controls were made starting at a stock concentration of 2 mM and using 2 nM biotinylated vitronectin in TBS^+++/BSA as the diluent. This premixing of labeled ligand with test (or control) ligand, and subsequent transfer of 50 µL aliquots to the assay plate was carried out with a CETUS Propette robot; the final concentration of the labeled ligand was 1 nM and the highest concentration of test compound was 1.0 x 10^-4 M. The competition occurred for two hours after which all wells were washed with a plate washer as before. Affinity purified horseradish peroxidase labeled goat anti-biotin antibody was diluted 1:3000 in TBS^+++/BSA and 125 µL were added to each well. After 30 minutes, the plates were washed and incubated with OPD/H2O2 substrate in 100 mM/L Citrate buffer, pH 5.0. The plate was read with a microtiter plate reader at a wavelength of 450 nm and when the maximum-binding control wells reached an absorbance of about 1.0, the final A450 were recorded for analysis. The data were analyzed using a macro written for use with the EXCEL™ spreadsheet program. The mean, standard deviation, and %CV were determined for duplicate concentrations. The mean A450 values were normalized to the mean of four maximum-binding controls (no competitor added)(B-MAX). The normalized values were subjected to a four parameter curve fit algorithm [Rodbard et al., Int.

[2] = target: T2, Human fibrinogen receptor (αIIbβ3) (Homo sapiens, UniProt P05106+P08514); experiment: Purified IIb/IIIa receptor assay (solid phase receptor assay, competition with biotinylated vitronectin); type: binding; details: purified receptor from outdated platelets; 1 nM biotinylated vitronectin; highest concentration tested 1.0 x 10^-4 M
T2 construct: Human fibrinogen receptor (αIIbβ3) was purified from outdated platelets; from tissue; host or cells: outdated (human) platelets
Excerpt: PURIFIED IIb/IIIa RECEPTOR ASSAY
Human fibrinogen receptor (αIIbβ3) was purified from outdated platelets. (Pytela, R., Pierschbacher, M.D., Argraves, S., Suzuki, S., and Rouslahti, E. "Arginine-Glycine-Aspartic acid adhesion receptors", Methods in Enzymology 144(1987):475-489.) Human vitronectin was purified from fresh frozen plasma as described in Yatohgo, T., Izumi, M., Kashiwagi, H., and Hayashi, M., "Novel purification of vitronectin from human plasma by heparin affinity chromatography," Cell Structure and Function 13(1988):281-292. Biotinylated human vitronectin was prepared by coupling NHS-biotin from Pierce Chemical Company (Rockford, IL) to purified vitronectin as previously described. (Charo, I.F., Nannizzi, L., Phillips, D.R., Hsu, M.A., Scarborough, R.M., "Inhibition of fibrinogen binding to GP IIb/IIIa by a GP IIIa peptide", J. Biol. Chem. 266(3)(1991): 1415-1421.) Assay buffer, OPD substrate tablets, and RIA grade BSA were obtained from Sigma (St. Louis, MO). Anti-biotin antibody was obtained from Calbiochem (La Jolla, CA). Linbro microtiter plates were obtained from Flow Labs (McLean, VA). ADP reagent was obtained from Sigma (St. Louis, MO).
This assay is essentially the same reported in Niiya, K., Hodson, E., Bader, R., Byers-Ward, V. Koziol, J.A., Plow, E.F. and Ruggeri, Z.M., "Increased surface expression of the membrane glycoprotein IIb/IIIa complex induced by platelet activation: Relationships to the binding of fibrinogen and platelet aggregation", Blood 70(1987):475-483. The purified human fibrinogen receptor (αIIbβ3) was diluted from stock solutions to 1.0 µg/mL in Tris-buffered saline containing 1.0 mM Ca^++, Mg^++, and Mn^++, pH 7.4 (TBS^+++). The diluted receptor was immediately transferred to Linbro microtiter plates at 100 µL/well (100 ng receptor/well). The plates were sealed and incubated overnight at 4°C to allow the receptor to bind to the wells. All remaining steps were at room temperature. The assay plates were emptied and 200 µL of 1% RIA grade BSA in TBS^+++ (TBS^+++/BSA) were added to block exposed plastic surfaces. Following a 2 hour incubation, the assay plates were washed with TBS^+++ using a 96 well plate washer. Logarithmic serial dilution of the test compound and controls were made starting at a stock concentration of 2 mM and using 2 nM biotinylated vitronectin in TBS^+++/BSA as the diluent. This premixing of labeled ligand with test (or control) ligand, and subsequent transfer of 50 µL aliquots to the assay plate was carried out with a CETUS Propette robot; the final concentration of the labeled ligand was 1 nM and the highest concentration of test compound was 1.0 x 10^-4 M. The competition occurred for two hours after which all wells were washed with a plate washer as before. Affinity purified horseradish peroxidase labeled goat anti-biotin antibody was diluted 1:3000 in TBS^+++/BSA and 125 µL were added to each well. After 30 minutes, the plates were washed and incubated with […] substrate in 100 mM/L citrate buffer, pH 5.0. The plate was read with a microtiter plate reader at a wavelength of 450 nm and when the maximum-binding control wells reached an absorbance of about 1.0, the final A450 were recorded for analysis. The data were analyzed using a macro written for use with the EXCEL™ spreadsheet program. The mean, standard deviation, and %CV were determined for duplicate concentrations. The mean A450 values were normalized to the mean of four maximum-binding controls (no competitor added)(B-MAX). The normalized values were subjected to a four parameter curve fit algorithm, [Robard et al., Int. […]

[3] = purified receptor from human placenta; 1 nM biotinylated vitronectin; highest concentration tested 1.0 x 10^-4 M; read-out: AvB3 IC50

CCOC(=O)C(Cc1ccc(NC(=O)c2cccc(NC(=N)N)c2)cc1)NC(=O)OC(C)(C)C (stereo not shown) [Example 44, trifluoroacetate salt]
IC50 [1, 3]: 120 nM
IC50 [2]: 4310 nM

N=C(N)Nc1cccc(C(=O)Nc2ccc(CC(NC(=O)c3ccccc3)C(=O)O)cc2)c1 (stereo not shown) [Example 47, trifluoroacetate salt]
IC50 [1, 3]: 5.89 nM
IC50 [2]: 51.1 nM

CS(=O)(=O)NC(Cc1ccc(NC(=O)c2cccc(NC(=N)N)c2)cc1)C(=O)O (stereo not shown) [Example 48, trifluoroacetate salt]
IC50 [1, 3]: 0.63 nM
IC50 [2]: 15.6 nM

CCOC(=O)NC(Cc1ccc(NC(=O)c2cccc(NC(=N)N)c2)cc1)C(=O)O (stereo not shown) [Example 49, trifluoroacetate salt]
IC50 [1, 3]: 1.1 nM
IC50 [2]: 31.4 nM

CC(C)OC(=O)NC(Cc1ccc(NC(=O)c2cccc(N=C(N)N)c2)cc1)C(=O)O (stereo not shown) [Example 50, trifluoroacetate salt]
IC50 [1, 3]: 0.8 nM
IC50 [2]: 21.7 nM

N=C(N)Nc1cccc(C(=O)Nc2ccc(CC(NS(=O)(=O)c3ccccc3)C(=O)O)cc2)c1 (stereo not shown) [Example 51, trifluoroacetate salt]
IC50 [1, 3]: 0.63 nM
IC50 [2]: 0.71 nM

CCCCS(=O)(=O)NC(Cc1ccc(NC(=O)c2cccc(NC(=N)N)c2)cc1)C(=O)O (stereo not shown) [Example 52, trifluoroacetate salt]
IC50 [1, 3]: 0.33 nM
IC50 [2]: 1.88 nM

CC(C)(C)OC(=O)NC(Cc1ccc(NC(=O)c2cccc(N=C(N)N)c2)cc1)C(=O)O (stereo not shown) [Example 55, 4-[[[3-[(aminoiminomethyl)amino]phenyl]carbonyl]amino]-N-[(1,1-dimethylethoxy)carbonyl]-phenylalanine, monohydrate trifluoroacetate salt]
IC50 [1, 3]: 0.51 nM
IC50 [2]: 14.3 nM

CC(C)(C)OC(=O)N[C@@H](Cc1ccc(NC(=O)c2cccc(NC(=N)N)c2)cc1)C(=O)O [Example 56, trifluoroacetate salt]
IC50 [1, 3]: 0.43 nM
IC50 [2]: 6.35 nM

CC(C)(C)OC(=O)N[C@H](Cc1ccc(NC(=O)c2cccc(NC(=N)N)c2)cc1)C(=O)O [Example 57, 4-[[[3-[(aminoiminomethyl)amino]phenyl]carbonyl]amino]-N-[(1,1-dimethylethoxy)carbonyl]-D-phenylalanine, monohydrate trifluoroacetate salt]
IC50 [1, 3]: 14.5 nM
IC50 [2]: 318 nM

CC(C)(C)OC(=O)CCc1ccc(CCNC(=O)c2cccc(NC(=N)N)c2)cc1 [Example 58, monohydrate trifluoroacetate salt]
IC50 ([1]; read-out: AvB3 IC50; purified receptor from human placenta; 1 nM biotinylated vitronectin; highest concentration tested 1.0 x 10^-4 M): 48400 nM
IC50 [2]: 57200 nM

N=C(N)Nc1cccc(C(=O)NCCc2ccc(CCC(=O)O)cc2)c1 [Example 59, 4-[2-[[[3-[(aminoiminomethyl)amino]phenyl]carbonyl]amino]ethyl]benzenepropanoic acid, trifluoroacetate salt]
IC50 [1, 3]: 4480 nM
IC50 [2]: 478 nM

CCOC(=O)CCc1ccc(N(C)C(=O)c2cccc(NC(=N)N)c2)cc1 [Example 60, ethyl 4-[[[3-[(aminoiminomethyl)amino]phenyl]carbonyl]methylamino]benzenepropanoate, trifluoroacetate salt]
IC50 [1, 3]: 3370 nM
IC50 [2]: 3810 nM

CN(C(=O)c1cccc(NC(=N)N)c1)c1ccc(CCC(=O)O)cc1 [Example 61, 4-[[[3-[(aminoiminomethyl)amino]phenyl]carbonyl]methylamino]benzenepropanoic acid, monohydrate trifluoroacetate salt]
IC50 [1, 3]: 470 nM
IC50 [2]: 666 nM

N=C(N)Nc1cccc(S(=O)(=O)Nc2ccc(CCC(=O)O)cc2)c1 [Example 62, 4-[[[3-[(aminoiminomethyl)amino]phenyl]sulfonyl]amino]benzenepropanoic acid, trifluoroacetate salt]
IC50 [1, 3]: 28100 nM
IC50 [2]: 14800 nM

NC(N)=Nc1cccc(C(=O)Nc2ccc(CCC(=O)O)cc2)c1 [Example 64, 4-[[[3-[(aminoiminomethyl)amino]phenyl]carbonyl]amino]benzenepropanoic acid, hydrochloride]
IC50 [1, 3]: 21.2 nM
IC50 [2]: 93.1 nM

N=C(N)Nc1cccc(C(=O)Nc2ccc(CC(N)C(=O)O)cc2)c1 (stereo not shown) [Example 65, 4-[[[3-[(aminoiminomethyl)amino]phenyl]carbonyl]amino]phenylalanine, trifluoroacetate salt]
IC50 [1, 3]: 4760 nM
IC50 [2]: 21900 nM

CC(=O)NC(Cc1ccc(NC(=O)Nc2cccc(NC(=N)N)c2)cc1)C(=O)O (stereo not shown) [Example 68, N-acetyl-4-[[[[3-[(aminoiminomethyl)amino]phenyl]amino]carbonyl]amino]phenylalanine, trifluoroacetate salt]
IC50 [1, 3]: 782 nM
IC50 [2]: 103 nM

CCOC(=O)C(CC(=O)O)c1ccc(NC(=O)c2cccc(NC(=N)N)c2)cc1 (stereo not shown) [Example 71, 1-ethyl hydrogen[4-[[[3-[(aminoiminomethyl)amino]phenyl]carbonyl]amino]-phenyl]butanedioate, trifluoroacetate salt]
IC50 [1, 3]: 38.7 nM
IC50 [2]: 8.3 nM

CC(C)OC(=O)NC(Cc1ccc(NC(=O)c2cccc(NC3=NC(=O)CN3)c2)cc1)C(=O)O (stereo not shown) [Example 77, 4-[[[3-[(4,5-dihydro-4-oxo-lH-imidazol-2-yl)amino]phenyl]carbonyl]amino]-N-[(1-methylethoxy)-carbonyl]phenylalanine]
IC50 [1, 3]: 1.6 nM
IC50 [2]: 1260 nM
